# Values of other authors, collected in patent publication US20240424001A1, “LOCAL […] OF GROWTH AND REPAIR PROMOTING COMPOUNDS FOR TREATING, REDUCING AND/OR PREVENTING STRESS URINARY IN[…] FECAL INCONTINENCE” (STATERA PHARMA INC., priority 2021, published 2024).
# Conditions: approximate; testosterone = 100%; varies with species studied and assay methodology (ref. 14)
row,SMILES,relative potency of androgens [%]
1,C[C@]12CC[C@H]3[C@@H](CCC4=CC(=O)CC[C@@]43C)[C@@H]1CC[C@@H]2O [testosterone],~100
2,C[C@]12CC[C@H](O)CC1=CC[C@@H]1[C@@H]2CC[C@]2(C)C(=O)CC[C@@H]12 [dehydroepiandrosterone],~5
3,C[C@]12CCC(=O)C=C1CC[C@@H]1[C@@H]2CC[C@]2(C)C(=O)CC[C@@H]12 [androstenedione],~10
